Holding throughout (assay): Glasshouse herbicide test, pre- and post-emergence, percentage damage
What all share (assay type): in vivo

One assay has as its system Lolium perenne (LOLPE). The conditions noted are these: 1000 g/h, evaluated after 13 days, five point scale. The procedure: (§1) Seeds of a variety of test species are sown in standard soil in pots (Alopecurus myosuroides (ALOMY), Setaria faberi (SETFA), Stellaria media (STEME), Echinochloa crus-galli (ECHCG), Solanum nigrum (SOLNI), Amaranthus retoflexus (AMARE), Ipomoea hederacea (IPOHE), Lolium perenne (LOLPE). After cultivation for one day (pre-emergence) or after 8 days cultivation (post-emergence) under controlled conditions in a glasshouse (at 24/16° C., day/night; 14 hours light; 65% humidity), the plants are sprayed with an aqueous spray solution derived from the formulation of the technical active ingredient in acetone/water (50:50) solution containing 0.5% Tween 20 (polyoxyethelyene sorbitan monolaurate, CAS RN 9005-64-5). Compounds ae applied at 1000 g/h. The test plants are then grown in a glasshouse under controlled conditions in a glasshouse (at 24/16° C., day/night; 14 hours light; 65% humidity) and watered twice daily. After 13 days for pre and post-emergence, the test is evaluated for the percentage damage caused to the plant. The biological activities are shown in the following table on a five point scale (5=80-100%; 4=60-79%; 3=40-59%; 2=20-39%; 1=0-19%).

The test system of another assay is Stellaria media (STEME). The conditions noted are these: 1000 g/h, evaluated after 13 days, five point scale. The procedure: as §1
A further assay concerns DIGSA. The conditions noted are these: 1000 g/h, evaluated after 13 days, five point scale. The procedure:
[The source words this procedure for another organism and reports this organism under the same test.] as §1

For assay [1], the system named is Amaranthus retoflexus (AMARE). The conditions noted are these: 1000 g/h, evaluated after 13 days, five point scale (Table B2). The procedure: as §1

For `Cn1nnnc1NC(=O)c1ccccc1Cl` [Compound 1.015], the “percentage damage caused to the plant, LOLPE, POST Application” value with Lolium perenne (LOLPE) (post-emergence) is listed as 4 (4=60-79%). For the same compound, the “percentage damage caused to the plant, LOLPE, PRE Application” value in the assay with Lolium perenne (LOLPE) (pre-emergence) was 3 (3=40-59%). Besides, the “percentage damage caused to the plant, STEME, POST Application” value with Stellaria media (STEME) (post-emergence) was 4 (4=60-79%). Further, in the assay with Stellaria media (STEME) (pre-emergence), the “percentage damage caused to the plant, STEME, PRE Application” value was 3 (3=40-59%). The “percentage damage caused to the plant, DIGSA, POST Application” value with DIGSA (post-emergence) is reported as 1 (1=0-19%). The “percentage damage caused to the plant, DIGSA, PRE Application” value in the assay on DIGSA (pre-emergence) is reported as 1 (1=0-19%). Also, in assay [1] (post-emergence), the “percentage damage caused to the plant, AMARE, POST Application” value is listed as 4 (4=60-79%). Also, the “percentage damage caused to the plant, AMARE, PRE Application” value in assay [1] (pre-emergence) was 5 (5=80-100%).

Source of the values: patent US9686986B2, “Herbicidal compounds” (SYNGENTA LIMITED, priority 2011, dated 2017).
